{
  "source": "patent US9221815B2",
  "about": "“Solid state form of vemurafenib choline salt” (ratiopharm GmbH, priority 2012, dated 2015)",
  "key": {"[1]": {"settings": "amorphous form; cited from earlier work"}, "[2]": {"settings": "in accordance with WO 2010/114928 and WO 2010/129570; cited from earlier work"}},
  "note": "Read-outs that look alike come from different tables or passages of the source.",
  "data": [
    {"compound": "CCCS(=O)(=O)Nc1ccc(F)c(C(=O)c2c[nH]c3ncc(-c4ccc(Cl)cc4)cc23)c1F", "note": "[Amorphous Vemurafenib]", "values": [
      {"measurement": "Stability (in words)", "setting": "[1]", "value": "not stable"}
    ]},
    {"compound": "CCCS(=O)(=O)Nc1ccc(F)c(C(=O)c2c[nH]c3ncc(-c4ccc(Cl)cc4)cc23)c1F.C[N+](C)(C)CCO", "note": "[Vemurafenib Choline crystalline C1]", "values": [
      {"measurement": "Period stable upon storage", "setting": "45° C. and 75% relative humidity (RH)", "value": "at least 2 weeks"},
      {"measurement": "Period stable upon storage", "setting": "ambient conditions (room temperature and atmospheric humidity)", "value": "at least 7 months"}
    ]},
    {"compound": "CCCS(=O)(=O)Nc1ccc(F)c(C(=O)c2c[nH]c3ncc(-c4ccc(Cl)cc4)cc23)c1F", "note": "[Vemurafenib, propane-1-sulfonic acid {3-[5-(4-chlorophenyl)-1H-pyrrolo[2,3-b]pyridine-3-carbonyl]-2,4-difluoro-phenyl}-amide]", "values": [
      {"measurement": "Solubility (in words)", "setting": "[2]", "value": "extremely low solubility"}
    ]}
  ]
}
